Experiments:
Assay type in all cases: in vivo
[1] = system: sedge, umbrella (small-flower umbrella sedge, Cyperus difformis); experiment: Test B flooded paddy test, visual rating; conditions: Flood, 250 g ai/ha, applied to paddy water, rated after 13 to 15 d
Procedure, shortened: (§1)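 Plants at the 2-leaf stage were flooded to 3 cm above soil, and test compounds were applied directly into the paddy water, which was held at that depth throughout. After 13 to 15 d in a greenhouse, injury was rated visually against untreated controls on a 0–100 scale (0 no effect, 100 complete control).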

[2] = system: barnyardgrass (Echinochloa crus-galli); experiment: Test B flooded paddy test, visual rating; conditions: Flood, 250 g ai/ha, applied to paddy water, rated after 13 to 15 d
Procedure, shortened: as §1

[3] = system: ducksalad (Heteranthera limosa); experiment: Test B flooded paddy test, visual rating; conditions: Flood, 250 g ai/ha, applied to paddy water, rated after 13 to 15 d
Procedure, shortened: as §1

rice (Oryza sativa) = experiment: Test B flooded paddy test, visual rating; conditions: Flood, 250 g ai/ha, applied to paddy water, rated after 13 to 15 d
Procedure, shortened: as §1

[4] = system: barnyardgrass (Echinochloa crus-galli); experiment: Test A preemergence, directed soil spray, visual injury rating; conditions: 0 is no effect, 100 is complete control
Procedure, shortened: (§2)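 Seeds sown in a loam soil–sand blend received a directed preemergence soil spray of test chemical in a non-phytotoxic solvent mixture with surfactant. Postemergence plants were sprayed at 2 to 10 cm, one- to two-leaf stage. After approximately 10 d in greenhouse, injury was visually rated 0 (no effect) to 100 (complete control) against untreated controls.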

[5] = system: foxtail, giant (giant foxtail, Setaria faberii); experiment: as above; conditions: 0 is no effect, 100 is complete control
Procedure, shortened: as §2

[6] = system: pigweed (Amaranthus retroflexus); experiment: as above; conditions: 0 is no effect, 100 is complete control
Procedure, shortened: as §2

[7] = system: ryegrass, It. (Italian ryegrass, Lolium multiflorum); experiment: as above; conditions: 0 is no effect, 100 is complete control
Procedure, shortened: as §2

kochia (Kochia scoparia) [8] = experiment: as above; conditions: 0 is no effect, 100 is complete control
Procedure, shortened: as §2

[9] = system: ragweed (common ragweed, Ambrosia elatior); experiment: as above; conditions: 0 is no effect, 100 is complete control
Procedure, shortened: as §2

[10] = system: barnyardgrass (Echinochloa crus-galli); experiment: Test A postemergence application, visual injury rating; conditions: 0 to 100 scale, 0 no effect, 100 complete control
Procedure, shortened: as §2

[11] = system: foxtail, giant (giant foxtail, Setaria faberii); experiment: as above; conditions: for Foxtail, Giant plant response rating: 0 to 100 scale, 0 no effect, 100 complete control
Procedure, shortened: as §2

[12] = system: pigweed (Amaranthus retroflexus); experiment: as above; conditions: for Pigweed plant response rating: 0 to 100 scale, 0 no effect, 100 complete control
Procedure, shortened: as §2

[13] = system: wheat (Triticum aestivum); experiment: as above; conditions: for Wheat plant response rating: 0 to 100 scale, 0 no effect, 100 complete control
Procedure, shortened: as §2

[14] = system: ryegrass, It. (Italian ryegrass, Lolium multiflorum); experiment: as above; conditions: for Ryegrass, It. plant response rating: 0 to 100 scale, 0 no effect, 100 complete control
Procedure, shortened: as §2

corn (Zea mays) = experiment: as above; conditions: for Corn plant response rating: 0 to 100 scale, 0 no effect, 100 complete control
Procedure, shortened: as §2

kochia (Kochia scoparia) [15] = experiment: as above; conditions: for Kochia plant response rating: 0 to 100 scale, 0 no effect, 100 complete control
Procedure, shortened: as §2

[16] = system: galium (catchweed bedstraw, Galium aparine); experiment: as above; conditions: for Galium plant response rating: 0 to 100 scale, 0 no effect, 100 complete control
Procedure, shortened: as §2

[17] = system: blackgrass (Alopecurus myosuroides); experiment: as above; conditions: 0 to 100 scale, 0 no effect, 100 complete control
Procedure, shortened: as §2

[18] = system: ragweed (common ragweed, Ambrosia elatior); experiment: as above; conditions: for Ragweed plant response rating: 0 to 100 scale, 0 no effect, 100 complete control
Procedure, shortened: as §2

[19] = 31 g ai/ha, 0 is no effect, 100 is complete control

## Cc1cc2c(Cl)ccc(-c3c(OC(=O)c4ccccc4)c(C)nn(C)c3=O)c2o1 [Compound 39]
[1]
  Sedge, Umbrella plant response rating (0 to 100 scale, 0 is no effect, 100 is complete control): 0
[2]
  Barnyardgrass plant response rating (0 to 100 scale, 0 is no effect, 100 is complete control): 0
[3]
  Ducksalad plant response rating (0 to 100 scale, 0 is no effect, 100 is complete control): 50
Rice (Oryza sativa)
  Rice plant response rating (0 to 100 scale, 0 is no effect, 100 is complete control): 0
[4]; 31 g ai/ha
  Plant response rating (0 to 100 scale), Barnyardgrass: 0
[4]; 125 g ai/ha
  Plant response rating (0 to 100 scale), Barnyardgrass: 0
[5]; 31 g ai/ha
  Plant response rating (0 to 100 scale), Foxtail, Giant: 0
[5]; 125 g ai/ha
  Plant response rating (0 to 100 scale), Foxtail, Giant: 0
[6]; 31 g ai/ha
  Plant response rating (0 to 100 scale), Pigweed: 0
[6]; 125 g ai/ha
  Plant response rating (0 to 100 scale), Pigweed: 0
[7]; 31 g ai/ha
  Plant response rating (0 to 100 scale), Ryegrass, It.: 10
[7]; 125 g ai/ha
  Plant response rating (0 to 100 scale), Ryegrass, It.: 50
Kochia (Kochia scoparia) [8]; 31 g ai/ha
  Plant response rating (0 to 100 scale), Kochia: 0
Kochia (Kochia scoparia) [8]; 125 g ai/ha
  Plant response rating (0 to 100 scale), Kochia: 0
[9]; 31 g ai/ha
  Plant response rating (0 to 100 scale), Ragweed: 0
[9]; 125 g ai/ha
  Plant response rating (0 to 100 scale), Ragweed: 0
[10]; 31 g ai/ha
  Barnyardgrass plant response rating: 0
[10]; 125 g ai/ha
  Barnyardgrass plant response rating: 10
[11]; 31 g ai/ha
  Foxtail, Giant plant response rating: 0
[11]; 125 g ai/ha
  Foxtail, Giant plant response rating: 10
[12]; 31 g ai/ha
  Pigweed plant response rating: 0
[12]; 125 g ai/ha
  Pigweed plant response rating: 0
[13]; 31 g ai/ha
  Wheat plant response rating: 0
[13]; 125 g ai/ha
  Wheat plant response rating: 0
[14]; 31 g ai/ha
  Ryegrass, It. plant response rating: 20
[14]; 125 g ai/ha
  Ryegrass, It. plant response rating: 30
Corn (Zea mays); 31 g ai/ha
  Corn plant response rating: 0
Corn (Zea mays); 125 g ai/ha
  Corn plant response rating: 0
Kochia (Kochia scoparia) [15]; 31 g ai/ha
  Kochia plant response rating: 0
Kochia (Kochia scoparia) [15]; 125 g ai/ha
  Kochia plant response rating: 0
[16]; 31 g ai/ha
  Galium plant response rating: 30
[16]; 125 g ai/ha
  Galium plant response rating: 90
[17]; 31 g ai/ha
  Blackgrass plant response rating: 0
[17]; 125 g ai/ha
  Blackgrass plant response rating: 20
[18]; 31 g ai/ha
  Ragweed plant response rating: 0
[18]; 125 g ai/ha
  Ragweed plant response rating: 10

## COC(=O)Oc1c(C)nn(C)c(=O)c1-c1ccc(Cl)c2sccc12 [Compound 59]
[1]
  Sedge, Umbrella plant response rating (0 to 100 scale, 0 is no effect, 100 is complete control): 0
[2]
  Barnyardgrass plant response rating (0 to 100 scale, 0 is no effect, 100 is complete control): 0
[3]
  Ducksalad plant response rating (0 to 100 scale, 0 is no effect, 100 is complete control): 0
Rice (Oryza sativa)
  Rice plant response rating (0 to 100 scale, 0 is no effect, 100 is complete control): 20
[4]; 31 g ai/ha
  Plant response rating (0 to 100 scale), Barnyardgrass: 0
[4]; 125 g ai/ha
  Plant response rating (0 to 100 scale), Barnyardgrass: 0
[5]; 31 g ai/ha
  Plant response rating (0 to 100 scale), Foxtail, Giant: 0
[5]; 125 g ai/ha
  Plant response rating (0 to 100 scale), Foxtail, Giant: 0
[6]; 31 g ai/ha
  Plant response rating (0 to 100 scale), Pigweed: 0
[6]; 125 g ai/ha
  Plant response rating (0 to 100 scale), Pigweed: 0
[7]; 31 g ai/ha
  Plant response rating (0 to 100 scale), Ryegrass, It.: 10
[7]; 125 g ai/ha
  Plant response rating (0 to 100 scale), Ryegrass, It.: 10
Kochia (Kochia scoparia) [8]; 31 g ai/ha
  Plant response rating (0 to 100 scale), Kochia: 10
Kochia (Kochia scoparia) [8]; 125 g ai/ha
  Plant response rating (0 to 100 scale), Kochia: 20
[9]; 31 g ai/ha
  Plant response rating (0 to 100 scale), Ragweed: 50
[9]; 125 g ai/ha
  Plant response rating (0 to 100 scale), Ragweed: 30
[10]; 31 g ai/ha
  Barnyardgrass plant response rating: 0
[10]; 125 g ai/ha
  Barnyardgrass plant response rating: 0
[11]; [19]
  Plant response rating (0 to 100 scale), Foxtail, Giant: 0
[11]; 125 g ai/ha
  Foxtail, Giant plant response rating: 0
[12]; [19]
  Plant response rating (0 to 100 scale), Pigweed: 0
[12]; 125 g ai/ha
  Pigweed plant response rating: 30
[13]; [19]
  Plant response rating (0 to 100 scale), Wheat: 0
[13]; 125 g ai/ha
  Wheat plant response rating: 0
[14]; [19]
  Plant response rating (0 to 100 scale), Ryegrass, It.: 0
[14]; 125 g ai/ha
  Ryegrass, It. plant response rating: 10
Corn (Zea mays); [19]
  Plant response rating (0 to 100 scale), Corn: 0
Corn (Zea mays); 125 g ai/ha
  Corn plant response rating: 20
Kochia (Kochia scoparia) [15]; [19]
  Plant response rating (0 to 100 scale), Kochia: 0
Kochia (Kochia scoparia) [15]; 125 g ai/ha
  Kochia plant response rating: 60
[16]; [19]
  Plant response rating (0 to 100 scale), Galium: 20
[16]; 125 g ai/ha
  Galium plant response rating: 80
[17]; 31 g ai/ha
  Blackgrass plant response rating: 0
[17]; 125 g ai/ha
  Blackgrass plant response rating: 0
[18]; [19]
  Plant response rating (0 to 100 scale), Ragweed: 0
[18]; 125 g ai/ha
  Ragweed plant response rating: 0
